# Experiments:
# human MAO-A = molecular target: T1, human MAO-A (Homo sapiens, UniProt P21397); test: MAO inhibitory assay (kynuramine, fluorescence), MAO-A; type: biochemical; details: human recombinant enzyme, kynuramine substrate, 37° C., triplicate
# T1 sequence (P21397 1-527): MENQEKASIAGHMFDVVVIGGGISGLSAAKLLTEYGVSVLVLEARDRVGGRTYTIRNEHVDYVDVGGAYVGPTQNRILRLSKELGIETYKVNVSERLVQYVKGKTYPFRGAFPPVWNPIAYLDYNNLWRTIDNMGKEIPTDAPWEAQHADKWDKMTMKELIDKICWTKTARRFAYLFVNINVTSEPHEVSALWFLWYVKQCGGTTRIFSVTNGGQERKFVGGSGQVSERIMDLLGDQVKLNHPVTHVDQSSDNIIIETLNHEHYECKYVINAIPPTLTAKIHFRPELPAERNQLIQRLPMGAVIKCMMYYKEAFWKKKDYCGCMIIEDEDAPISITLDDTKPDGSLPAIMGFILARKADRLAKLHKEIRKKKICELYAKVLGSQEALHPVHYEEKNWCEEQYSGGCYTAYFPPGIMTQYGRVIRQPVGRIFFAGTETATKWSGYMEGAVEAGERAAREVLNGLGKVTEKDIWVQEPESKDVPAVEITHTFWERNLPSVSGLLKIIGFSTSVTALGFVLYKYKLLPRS
# Description: (§1) MAO inhibitory activity was assayed using the method of Novaroli et al. with minor modifications. Briefly, 140 μL of 0.1 M potassium phosphate buffer (pH 7.4), 8 μL of 0.75 mM kynuramine, and 2 μL of a dimethyl sulfoxide (DMSO) inhibitor solution (final DMSO concentration of 1% (v/v) and final concentrations of the inhibitors of 0-1 μM), were preincubated at 37° C. for 10 min. Diluted human recombinant enzyme (50 μL) was then added to obtain a final protein concentration of 0.0075 mg/mL (MAO-A) or 0.015 mg/mL (MAO-B) in the assay mixture. The reaction mixture was further incubated at 37° C. and the reaction was stopped after 20 min by the addition of 75 μL of 2 M NaOH. The product generated by MAO, 4-quinolinol, is fluorescent and was measured at Ex 310 nm/Em 400 nm using a microplate reader (Thermo Scientific-Multiskan GO). Each data points of samples were triplicate. The sample solution was replaced with DMSO to provide a negative control. The IC50 values were calculated from a line through two points which sandwiched the point of 50% (IC50) by plotting the remained activity (%) related to control (100%) versus the logarithm of the inhibitor concentration to obtain a sigmoidal dose-response curve
# human MAO-B = molecular target: T2, human MAO-B (Homo sapiens, UniProt P27338); test: MAO inhibitory assay (kynuramine, fluorescence), MAO-B; type: biochemical
# T2 sequence (P27338 1-520): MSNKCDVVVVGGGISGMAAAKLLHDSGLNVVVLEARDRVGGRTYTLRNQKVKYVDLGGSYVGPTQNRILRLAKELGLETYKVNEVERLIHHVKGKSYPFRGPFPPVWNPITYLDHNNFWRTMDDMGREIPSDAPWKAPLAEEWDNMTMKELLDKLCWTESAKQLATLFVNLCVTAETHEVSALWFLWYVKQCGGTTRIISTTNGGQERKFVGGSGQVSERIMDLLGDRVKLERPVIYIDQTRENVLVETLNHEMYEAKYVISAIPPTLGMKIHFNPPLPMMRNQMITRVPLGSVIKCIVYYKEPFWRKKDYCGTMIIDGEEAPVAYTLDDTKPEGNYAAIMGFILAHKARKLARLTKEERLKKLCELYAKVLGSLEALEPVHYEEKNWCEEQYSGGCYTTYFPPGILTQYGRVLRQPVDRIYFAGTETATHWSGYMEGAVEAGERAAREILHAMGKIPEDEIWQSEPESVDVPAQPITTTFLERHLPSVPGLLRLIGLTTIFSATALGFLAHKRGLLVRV
# Description: as §1
smiles,measurement,setting,value
Cn1nc(C(=O)NCCc2nc3ccccc3[nH]2)c2ccccc21 (racemic) [compound of formula I],IC50,human MAO-A,54.8 ± 1.9 nM
same,fold more potent binding to MOA-B compared to MOA-A,"human MAO-B; MAO-B over MAO-A, from IC50 values",approximately 13 fold
same,IC50,"human MAO-B; human recombinant enzyme, kynuramine substrate, 37° C., triplicate",4.02 ± 0.03 nM
